This note sets out measurements from patent EP2407164A1, “Copper II complexes of phenanthroline and their use in cancer treatment” (Dublin Institute of Technology Intellectual Property Ltd, priority 2010, dated 2012).

Data set [1] deals with HT29. The experiment in a line: MTT cytotoxicity assay, complex 7. In kind it is cell-based, Human. As to conditions: HT29 colon cancer line, 24 hr. How it is done: (§1) For cytotoxicity evaluation HT29, SW480 and SW620 cell lines were employed; all the cell lines were grown in RPMI 1640 media (Fischer). All media were supplemented with 10% foetal bovine serum (FBS) and 45 IU/ml penicillin and 45 µg/ml streptomycin and cells were maintained at 37 °C in a 5% CO2 humidified incubator.
(§2) For sterilisation samples were filtered with a 0.2 micron cellulose acetate filter. For cytotoxicological evaluation all samples were prepared fresh on the day of exposure. A stock concentration of test compound was prepared in the exposure media (10% DMEM F-12) necessary for the cell line under test. This sample was vortexed to ensure a uniform dispersion of the compound under test.
For cytotoxicity assays cells were seeded in 96-well microplates (Nunc, Denmark) at a density of 1 x 10^5 cells/ml for the 24 hr test, 5 x10^4 cells/ml for the 48 hr test and 3 x 10^4 cells/ml for the 96 hr test. […] After 24 h of cell attachment, plates were washed with 100 µl/well phosphate buffered saline (PBS) and the cells were treated with increasing concentrations of each compound for 24 h. […] The plate was shaken at 240 rpm for 10 min and the absorbance was measured at 570 nm.
At least three independent experiments were conducted in triplicate for each cell line and toxicity endpoint. […] Differences between samples and the control were evaluated using the statistical analysis package SPSS 14.0. […]

The subject of data set [2] is SW480. The experiment in a line: MTT cytotoxicity assay, complex 7. In kind it is cell-based. As to conditions: SW480 (Dukes' B) colon cancer line, 24 hr. The method, then: as §1, §2
(§3) For cytotoxicity assays cells were seeded in 96-well microplates (Nunc, Denmark) at a density of 1 x 10^5 cells/ml for the 24 hr test, 5 x10^4 cells/ml for the 48 hr test and 3 x 10^4 cells/ml for the 96 hr test. […] After 24 h of cell attachment, plates were washed with 100 µl/well phosphate buffered saline (PBS) and the cells were treated with increasing concentrations of each compound for 24 h. Six replicate wells were used for each control and test concentration per microplate. Following the desired time of compound exposure, control medium or test exposures were removed, the cells were rinsed with PBS and 100 µl of fresh medium (without FBS or supplements) was added to each well. 10 µl of MTT (5 mg/ml) prepared in PBS was then added to each well and the plates were incubated for 3 h at 37°C in a 5% CO2 humidified incubator. After this incubation period the medium was discarded, the cells were washed with 100 µl of PBS and 100 µl of DMSO was added to each well to extract the dye. The plate was shaken at 240 rpm for 10 min and the absorbance was measured at 570 nm.
(§4) At least three independent experiments were conducted in triplicate for each cell line and toxicity endpoint. […] Control values were set as 100%. Differences between samples and the control were evaluated using the statistical analysis package SPSS 14.0. Statistically significant differences were set at p≤0.05.

For data set [3], the system named is SW620. The experiment in a line: MTT cytotoxicity assay, complex 7. As to conditions: SW620 (Dukes' C) colon cancer line, 24 hr. The class given is cell-based. How it is done: as §1, §2, §3, §4
(In general: Formazan colour is commonly taken as a measure of viable cells.)

For data set [4], the system named is CT-DNA. The experiment in a line: Competitive ethidium bromide displacement. In kind it is binding, calf. As to conditions: for Kapp (apparent binding constant): Kapp = Ke x 1.26/C50 where Ke = 9.5 x 10^6 M(bp)^-1; for Kapp (apparent binding constant) / IC50: 1.2 µM EtBr, 1 µM CT-DNAp, pH 7.0; for IC50: final volume 2 mL, 10 mM TES, 0.1 mM Na2EDTA, read-out: C50 = concentration required to reduce fluorescence by 50%. The method, then: Competitive Ethidium Displacement. […] Complexes 4-6, actinomycin D, pentamidine isethionate were prepared at 2.0 mM in DMSO. Two millilitres of DNA-Et solution were placed in a 10-mm quartz cuvet (3 mL) and positioned in a temperature controlled (20°C) spectrofluorometer (Perkin Elmer LS55B Luminescence Spectrometer). Excitation and emission wavelengths were set to 546 and 595 nm, respectively. After thermal equilibrium was established the emission and excitation slits were modified to give a fluorescence reading of 50 arbitrary units with measurements being recorded over a 20-s interval. An aliquot of complex or drug solution was taken (0.5 - 10 µL), was added to the cuvette and after equilibration the fluorescence reading was recorded. Repeated aliquots were added until the fluorescence was 20-40% of the initial control. Triplicate titrations were preformed and the apparent binding constants were calculated using Kapp = Ke x 1.26/C50 where Ke = 9.5 x 10^6 M(bp)^-1.

Data set [5] relates to CT-DNA. Kind of data set: DNA-ethidium fluorescence quenching. In kind it is binding, calf. As to conditions: Q = equivalent concentration required to reduce fluorescence by 50%; 2.0 µM EtBr, 20 µM DNAp, 2 mM NaOAc buffer, 9.3 mM NaCl, pH 5.0. The method, then:
(§5) DNA-Ethidium Fluorescence Quenching. Working solutions containing 20 µM poly[d(AT)]2 (ε260 = 13,100 M(bp)^-1 cm^-1), poly[d(G-C)]2 (ε260 = 16,800 M(bp)^-1 cm^-1) and CT-DNAp (ε260 = 12,824 M(bp)^-1 cm^-1) along with 2.0 µM Et in NaOAc buffer (2 mM NaOAc, 9.3 mM NaCl, 0.1 mM Na2EDTA, pH = 5.0) were prepared. Subsequent experimental steps are identical to the displacement experiment with the exception that a fluorescence reading of 200 arbitrary units with measurements being recorded over a 20-s interval was used. From a plot of the fluorescence vs added drug concentration, the Q values is given by the concentration required to effect 50% removal of the initial fluorescence.

The test system of data set [6] is pUC18. Kind of data set: Nuclease activity: relaxation of supercoiled plasmid DNA, agarose gel. In kind it is biochemical. As to conditions: 37 °C; for concentration at which nuclease activity is seen: supercoiled pUC18, 5 hours, no added H2O2, oxidant or reductant. How it is done:
Nuclease Activity. Reactions were carried out in a total volume of 20 µL in 0.1 M cacodylate buffer (pH = 6.0) with either 0.5, 2.5, 10 µL of 40 µM complex or 2, 5, 10 µL of 200 µM of complex, which were initially prepared in DMF, then diluted in cacodylate buffer (in which they dissolved), with 1 µL of 0.25 µg/µL pUC18 in cacodylate buffer. The resulting mixtures contained 1, 5, 10, 20, 50 and 100 µM of complex and […] of pUC18. Samples were incubated for 5 hr at 37°C. Quench buffer (3 µL; 0.25% bromophenolblue, 0.25% xylene cyanole and 30% glycerol) was then added and samples were loaded onto agarose gel (0.8%) containing 1.5 µL/100 mL of solution of GelRed™ (10,000X). Electrophoresis was completed at 80 V for 2 hr in 1XTAE buffer.

For data set [7], the system named is DU145. The experiment in a line: MTT cytotoxicity assay, complexes 1-6. The class given is cell-based, Human. As to conditions: DU145 prostate cancer, 24 hr exposure, mean of three independent experiments +/- standard error. How it is done:
(§6) Human colon cancer cell line, HT29 (passage 17 to 30, ATCC, USA), was grown in McCoys's 5a medium supplemented with 2mM L-glutamine and fetal bovine serum (FBS) 10% and containing 100U/ ml penicillin and 100µg / ml streptomycin at 37°C in a humidified atmosphere with 5% CO2 Human Breast Cancer cell line, MCF-7 (passage 16 to 26, ATCC, USA) was grown in Eagle's minimum essential medium containing 2mM L-glutamine, 100U/ ml penicillin,100µg/ ml streptomycin, FBS (10%), 1mM sodium pyruvate and 1% (v/v) non essential amino acids at 37°C in a humidified atmosphere with 5% CO2 Human prostate cancer cell line, DU145 (passage 12 to 29, ATCC, USA) was grown in Eagle's minimum essential medium containing 2mM L-glutamine, 100U/ ml penicillin, 100µg/ ml streptomycin, FBS (10%), 1mM sodium pyruvate and 1% (v/v) non essential amino acids at 37°C in a humidified atmosphere with 5% CO2. All drugs were tested by MTT assay following 24-hour exposure of cells to each compound. Each value represents the mean IC50 of three independent experiments +/- standard error.
(§7) MTT Assay. This method is based on the reduction of the tetrazolium salt, methylthiazolyldiphenyl-tetrazolium bromide (MTT) into a crystalline blue formazan product by the cellular oxidoreductases of viable cells. The resultant formazan crystal formation is proportional to the number of viable cells. Cells were seeded at 4x 10^5 cells/ml in 96-well plates and incubated at 37°C in 5% CO2 for 24 hours. Cells were treated with a four log range of concentration of the test compounds in triplicate from 0.1 to 500 µM or with a solvent control (0.5% DMSO) in complete medium. Following 24 h incubation, cells were incubated with 20 µl of MTT (5 mg/ml) in 0.1 M PBS, pH 7.4 at 37 °C in a humid atmosphere with 5% CO2 for 4 h. Media was then gently aspirated from test cultures and 100 µL of dimethyl sulphoxide (DMSO) was added to all wells. The plates were then shaken for 2 min and the absorbance was read at 550 nm in a Varioscan plate reader. The IC50 was defined as the concentration of test compound required to reduce the absorbance of the MTT-formazan crystals by 50%, indicating 50% cell deactivation.

Data set [8] relates to HT29. The experiment in a line: MTT cytotoxicity assay, complexes 1-6. In kind it is cell-based, Human. As to conditions: HT29 colon cancer, 24 hr exposure, mean of three independent experiments +/- standard error. The method, then: as §6, §7
Data set [9] has as its system MCF-7. Kind of data set: MTT cytotoxicity assay, complexes 1-6. The class given is cell-based, Human. As to conditions: MCF-7 breast cancer, 24 hr exposure, mean of three independent experiments +/- standard error. How it is done:
as §6, §7

Data set [10] concerns SK-OV-3. The experiment in a line: MTT cytotoxicity assay, complexes 1-6. The class given is cell-based, Human. As to conditions: SK-OV-3 ovarian cancer, 24 hr exposure, mean of three independent experiments +/- standard error. The method, then:
as §7
Cu(II) bis-phen complexes 4-6 display rapid, low micomolar toxicities against all tumor lines. […] It should be noted that 6 is dinuclear and so contains two active copper units, which may explain this heightened potency.

For data set [11], the system named is poly[d(A-T)]2. Kind of data set: DNA-ethidium fluorescence quenching. In kind it is binding. As to conditions: Q = equivalent concentration required to reduce fluorescence by 50%; 2.0 µM EtBr, 20 µM DNAp, 2 mM NaOAc buffer, 9.3 mM NaCl, pH 5.0. How it is done: as §5
Data set [12] deals with poly[d(G-C)]2. Kind of data set: DNA-ethidium fluorescence quenching. In kind it is binding. As to conditions: Q = equivalent concentration required to reduce fluorescence by 50%; 2.0 µM EtBr, 20 µM DNAp, 2 mM NaOAc buffer, 9.3 mM NaCl, pH 5.0. How it is done:
as §5

Data set [13] relates to four Human-derived tumor lines. The experiment in a line: MTT assay, summary statements over the four tumor lines. The class given is cell-based. As to conditions: MCF-7, DU145, SK-OV-3, HT29, 24 hours. How it is done:
as §6
MTT Assay. This method is based on the reduction of the tetrazolium salt, methylthiazolyldiphenyl-tetrazolium bromide (MTT) into a crystalline blue formazan product by the cellular oxidoreductases of viable cells. […] The plates were then shaken for 2 min and the absorbance was read at 550 nm in a Varioscan plate reader. […]

Data set [14] in a line: Solubility in organic solvents. As to conditions: DMSO/DMF.

Regarding “[Cu2(oda)(phen)4](ClO4)2.2.67H2O.C2H5OH [Complex 7]”, the entries for the “Activity LD50” value in [1], in [2] and in [3] were 9.61 µM, 11.3 µM and 31 µM, respectively. Moreover, the “Kapp (apparent binding constant)” value in data set [4] is reported as 2.55x10^5 M(bp)^-1. The “DNA binding ability, in words” value in data set [4] (competitive EtBr displacement with CT-DNA) was “efficient ability to bind with calf thymus DNA”. For the same substance, the IC50 in data set [4] came to 46.9 µM; in data set [5] it was 22.6 µM. Further, the “'self-activating' nuclease activity (relaxation of SC pUC18), in words” value in data set [6] (1-100 µM complex, 5 hours, no added H2O2 or reductant) was “highly efficient in the cleavage of plasmid DNA”. The “concentration at which nuclease activity is seen” value in [6] is on record as at least 10 µM.
With “[{Cu{(phen)2}2(terph)](terph)10H2O.3EtOH [Complex 6]”, the IC50 came to 5.7 ± 0.2 µM in data set [7]; 5.4 ± 0.3 µM in data set [8]; 7.9 ± 0.4 µM in data set [9]; 6.7 ± 0.4 µM in data set [10]; 39.4 µM in data set [4]; 8.55 µM in [11]. Besides, the IC50 in [12] came to 10.3 µM. In addition, in data set [4], the “Kapp (apparent binding constant)” value is given as 3.04x10^5 M(bp)^-1. Moreover, the “concentration at which nuclease activity is seen” value in data set [6] lay in the range of 1 to 5 µM. Also, in data set [13], the “cytotoxicity against all tumor lines, in words” value is “best broad-spectrum activity”. Moreover, the Solubility result in [14] was “forms only suspensions in DMSO/DMF”.
